# Entries after “also recorded” stand apart in the source; their conditions may differ. Read-outs that look alike come from different tables or passages of the source.
# Columns and labels:
# [1] = cited from earlier work
# [2] = cited from earlier work; remark: listed apart in the source
# [3] = solvents named; cited from earlier work
# [4] = Example 1: oxygen scavenging in deionized water, impact of temperature and activator; conditions: for dissolved oxygen scavenged: absence of catalyst, after 6 h, pH ~6.4, deionized water; for dissolved oxygen scavenged / time until all detectable dissolved oxygen was scavenged: 200 ppm; for time until all detectable dissolved oxygen was scavenged: with activator CuSO4·5H2O 10 ppm, pH ~6.4
# Method: To prepare the experiment, 500 mL of deionized water (saturated with dissolved oxygen) was placed in a 3-neck round bottom flask, and a calibrated dissolved oxygen probe was inserted into the center neck. FIG. 5 provides picture 500 of the experiment setup. The water was stirred magnetically, and the pH and temperature were adjusted to the indicated values. Temperature was controlled by heating in a water bath, and pH was adjusted to ˜6.4 with dilute hydrogen chloride (HCl). […] The corrosion-inhibiting agent and activator (if used) were injected via micropipette through one of the side necks in the flask. […] The flask was then sealed and dissolved oxygen was monitored continuously as a function of time.
# [5] = Example 6: oxygen scavenging in deionized water with and without P110 steel coupon
# Method: For a first test, no steel coupon was present but for a second test, a P110 steel coupon was suspended in the water. The dissolved oxygen was measured as a function of time at room temperature (˜ 70° F.) for both tests. FIG. 10 provides a picture 1000 of the second test in which the steel coupon was submerged in the deionized water within the glass vessel.
# At the 180 min mark, the temperature was increased from 70° F. to 100° F. in both tests.
# [6] = second test, P110 steel coupon present, 200 ppm, ~70° F.
Compound,~pKa [1],Solubility in Water (in words) [2],Solubility in Other Solvents [3],also measured
N.O=S(O)O [Ammonium bisulfite],7,,,
NNC(=O)NN [Carbohydrazide],11.81,Very,ethanol,
O=S([O-])O.[Na+] [Sodium Bisulfite],~7,,,~pKa ([1]; listed as sodium bisulfite): ~7
NN [Hydrazine],8-9,Miscible,"Ethanol,; also recorded: methanol",
O=C1O[C@H]([C@@H](O)CO)C(O)=C1O [Ascorbic Acid],,,,"reaction with dissolved oxygen (in words) ([4]; absence of activator, FIG. 6 solid lines): relatively sluggish; dissolved oxygen scavenged ([4]; 100° F.): approximately 35%; dissolved oxygen scavenged ([4]; 135° F.): ~93%; reaction rate with dissolved oxygen (in words) ([4]; copper catalyst (CuSO4·5H2O) added, FIG. 6 dashed lines): significant increase in reaction rate; time until all detectable dissolved oxygen was scavenged ([4]; 100° F.): ≤ 2 min; time until all detectable dissolved oxygen was scavenged ([4]; ambient temperature (72° F.)): ≤ 15 min; dissolved oxygen left behind ([5]; after temperature increased from 70° F. to 100° F. at the 180 min mark): ~0.37 ppm; dissolved oxygen after bolus of copper catalyst ([5]; copper catalyst (10 ppm) injected at the 235 min mark, 100° F.): non-detectable levels; dissolved oxygen concentration after 4 h ([5]; first test without coupon, 200 ppm, dropped from 9.05 ppm, room temperature (~70° F.)): 5.23 ppm; reaction with dissolved oxygen (in words) ([5]; first test without coupon, 200 ppm, ~70° F.): only a slow reaction was observed; rate of reaction with dissolved oxygen (in words) [5, 6]: increased significantly; time after which the scavenging reaction stalled [5, 6]: 180 min"
"Oc1ccc(O)cc1 [Hydroquinone (HQ), Hydroquinone]",9.9,,"Ethanol,; also recorded: acetone",Solubility in Water [2]: 59 mg/mL
"CCN(O)CC [Diethylhydroxylamine (DEHA), diethylhydroxylamine]",5.7,Miscible,,
"O=S([O-])S(=O)(=O)[O-].[Na+].[Na+] [Sodium Metabisulfite, reference compound]",~1.8,,"Glycerol,; also recorded: ethanol",Solubility in Water [2]: 653 mg/mL
"CCC(C)=NO [Methylethylketoxime (MEKO), Methylethylketoxime]",,Miscible,Ethanol,
O=S([O-])[O-].[Na+].[Na+] [Sodium Sulfite],~9,,,~pKa ([1]; listed as sodium sulfite): ~9
O=S([O-])([O-])=S.[Na+].[Na+] [Sodium Thiosulfate],1.74,,,
